Measurements: patent US9194872B2, “Potentiation of nanopharyngeal cancer radiotherapy by inhibitors of leukemia inhibitory factor” (Chang Gung University, priority 2013, dated 2015)
Values belong to the molecule of their own block, whether it stands above or below them.

Assays:
[1] = system: TW06 cell transfected with firefly luciferase 2 reporter gene; test: Tumor growth of mouse with intratumoral injection (in vivo imaging system); parameters: species or system NOD/SCID mouse; conditions: twice per week, 4 weeks, LIF 150-200 ng, sLIFR 1-2 μg, compared with PBS, FIGS. 3B, 3C
Experimental: In addition, a TW06 cell transfected with firefly luciferase 2 reporter gene was subcutaneously injected into the thigh of a 7-week-old NOD/SCID (non-obese diabetic/severe-combined immunodeficient) mouse. Until the tumor on the mouse's thigh was grown to a volume of 50 mm^3, PBS, leukemia inhibitory factor (150-200 ng, twice per week, 4 weeks), or a soluble leukemia inhibitory factor receptor (1-2 μg, twice per week, 4 weeks) was intratumorally injected into the mouse. Finally, the mouse's tumor was observed, and its activity and volume were detected by an in vivo imaging system at a certain time point after the injection.

[2] = system: nasopharyngeal cancer cell; test: Caspase3/7 positive cells after substance treatment and radiation in 4 Gy; assay type: cell-based; conditions: radiation 4 Gy; 96th hour after emission; LIF versus sLIFR treatment; FIG. 4D
CNE1 cells = test: Resistance of nasopharyngeal cancer cell to radiation in various doses (xCelligence); assay type: cell-based; conditions: LIF 10 ng/ml; for IC50 value of the radiation for the treated cells: FIG. 4B
Experimental: Firstly, 6×10^3 CNE1 cells were seeded. After cultivated at 37° C. overnight, the seeded cells were treated with PBS and leukemia inhibitory factor (10 ng/ml), and then radiation in various doses were emitted to the treated cells. Finally, an xCelligence real time cell analyzer was used to detect the cell growth at a certain time point after this emission.

[3] = system: TW06 cell transfected with firefly luciferase 2 reporter gene; test: Tumor growth of mouse with intratumoral injection and radiation in 7 Gy; assay type: in vivo, NOD/SCID mouse; conditions: twice per week, 4 weeks, LIF 150-200 ng, sLIFR 1-2 μg, radiation 7 Gy following first injection, FIGS. 5A, 5B
Experimental: A TW06 cell transfected with firefly luciferase 2 reporter gene was subcutaneously injected into the thigh of a 7-week-old NOD/SCID mouse. Until the tumor on the thigh was grown to a volume of 60-100 mm^3, PBS, leukemia inhibitory factor (150-200 ng, twice per week, 4 weeks), or a soluble leukemia inhibitory factor receptor (1-2 μg, twice per week, 4 weeks) was intratumorally injected into the mouse, and then radiation in a dose of 7 Gy were emitted to the mouse following the first injection. Finally, the mouse's tumor was observed, and its activity and volume were detected by an in vivo imaging system at a certain time point after the emission.

[4] = system: ATM, p53, γH2AX, NBS1 or CDC25C; test: Western blotting of apoptosis-related and DNA damage-related proteins after radiation in 4 Gy; assay type: cell-based; conditions: TW06 and CNE1 cells; radiation 4 Gy; 10th minute following emission; sLIFR versus LIF; FIGS. 4E, 4F
TW06 cells = test: Growth of nasopharyngeal cancer cell in vitro (xCelligence real time cell analyzer); assay type: cell-based; conditions: sLIFR 1 μg/ml, LIF 10 ng/ml, compared among PBS, sLIFR plus LIF, FIG. 3A
Experimental: 6×10^3 TW06 cells were seeded, and then cultivated at 37° C. overnight. These cells were treated with PBS, a soluble leukemia inhibitory factor receptor (1 μg/ml), leukemia inhibitory factor (10 ng/ml), or a soluble leukemia inhibitory factor receptor plus leukemia inhibitory factor. After which, an xCelligence real time cell analyzer (Roche Applied Science) was used to detect the cell growth at a certain time point after this treatment.

CNE1 cells or TW06 cells = test: Cell survival after substance treatment and radiation in 4 Gy (xCelligence); assay type: cell-based; conditions: radiation 4 Gy, sLIFR 1 μg/ml, LIF 10 ng/ml, FIG. 4C
Experimental: In another aspect, 6×10^3 CNE1 cells or TW06 cells were seeded, and then cultivated at 37° C. overnight. The cultivated cells were treated with PBS, a soluble leukemia inhibitory factor receptor (1 μg/ml), leukemia inhibitory factor (10 ng/ml), or leukemia inhibitory factor plus a soluble leukemia inhibitory factor receptor. After which, radiation in 4 Gy were emitted to the treated cells. Finally, an xCelligence real time cell analyzer was used to detect the cell survival at a certain time point after this emission.

IC50 value of the radiation for the treated cells (CNE1 cells; 48th hour after radiation emission (PBS 1.5 Gy)): 3.7 Gy | IC50 value of the radiation for the treated cells (CNE1 cells; 55th hour after radiation emission (PBS 1.3 Gy)): 5.8 Gy
Molecule: leukemia inhibitory factor: a cytokine belonging to the interleukin-6 family and mediating cell growth through inhibition of cell differentiation
tumor volume of the mouse [1]: the biggest | Caspase3/7 expression level [2]: low Caspase3/7 expression level | growth of cells with radiation emission (CNE1 cells; radiation in various doses, versus PBS, FIG. 4A): more obvious than that with PBS treatment and radiation emission | tumor volume of the mouse with radiation emission [3]: the biggest

B1: soluble leukemia inhibitory factor receptor: non-transmembrane protein (soluble receptor) that can bind leukemia inhibitory factor (protein, UniProt P42702 45-833, looked up)
extracellular domain: QKKGAPHDLKCVTNNLQVWNCSWKAPSGTGRGTDYEVCIENRSRSCYQLEKTSIKIPALSHGDYEITINSLHDFGSSTSKFTLNEQNVSLIPDTPEILNLSADFSTSTLYLKWNDRGSVFPHRSNVIWEIKVLRKESMELVKLVTHNTTLNGKDTLHHWSWASDMPLECAIHFVEIRCYIDNLHFSGLEEWSDWSPVKNISWIPDSQTKVFPQDKVILVGSDITFCCVSQEKVLSALIGHTNCPLIHLDGENVAIKIRNISVSASSGTNVVFTTEDNIFGTVIFAGYPPDTPQQLNCETHDLKEIICSWNPGRVTALVGPRATSYTLVESFSGKYVRLKRAEAPTNESYQLLFQMLPNQEIYNFTLNAHNPLGRSQSTILVNITEKVYPHTPTSFKVKDINSTAVKLSWHLPGNFAKINFLCEIEIKKSNSVQEQRNVTIKGVENSSYLVALDKLNPYTLYTFRIRCSTETFWKWSKWSNKKQHLTTEASPSKGPDTWREWSSDGKNLIIYWKPLPINEANGKILSYNVSCSSDEETQSLSEIPDPQHKAEIRLDKNDYIISVVAKNSVGSSPPSKIASMEIPNDDLKIEQVVGMGKGILLTWHYDPNMTCDYVIKWCNSSRSEPCLMDWRKVPSNSTETVIESDEFRPGIRYNFFLYGCRNQGYQLLRSMIGYIEELAPIVAPNFTVEDTSADSILVKWEDIPVEELRGFLRGYLFYFGKGERDTSKMRVLESGRSDIKVKNITDISQKTLRIADLQGKTSYHLVLRAYTDGGVGPEKSMYVVTKENS
modifications: extracellular domain
tumor volume of the mouse [1]: the smallest | activation/phosphorylation of apoptosis-related and DNA damage-related proteins [4]: activated/phosphorylated more strongly | tumor volume of the mouse with radiation emission [3]: the smallest | growth of cells (TW06 cells): the most unobvious | growth of cells with radiation emission (CNE1 cells or TW06 cells): the most unobvious
